# Reference: patent publication US20250197359A1, “CANNABINOID RECEPTOR MODULATING COMPOUNDS” (The U.S.A., as Represented by the Secretary, Department of …, priority 2022, published 2025)
# pIC50, pKi: −log10 of the molar value.
# Columns and labels:
# [1] = target: T1, Brain/CB1 (Mus musculus, UniProt P47746); assay: Functional GTPγS binding, Brain/CB1; type: biochemical
# T1 construct: from tissue; host or cells: mouse brain membranes
# Excerpt: Furthermore, the intermediates urea compounds 8a-m were chlorinated with phosphorus oxychloride in the presence of DIPEA base to form imidoyl chloride intermediate and reacted with acetamidine hydrochloride/methyl carbamimidothioate iodide/methyl carbamimidoselenoate iodide and other amines to furnish the target compounds (10a-34b) (Scheme 2, FIG. 2, Scheme 5, FIG. 5). The urea derivatives were converted to the thiourea derivatives 9a-9d by employing sodium thiosulfate. Compound 8a-b, 8e-f were converted to corresponding thiourea by employing sodium thiosulfate dissolved in water dioxane mixture and the reaction was heated to 85° C. for 2 h. […] The binding constant for the synthesized compounds were determined by using radioligand binding assay in mouse brain membranes as well as the target compounds were evaluated in vitro at the human CB1 receptor, stably expressed into Chinese hamster ovary (CHO) cells as well as mouse brain membrane CB1.
# [2] = target: CB1 (UniProt P21554); assay: CB1 radioligand binding assay; parameters: species or system human; conditions: read-out: Ki (CB1)
# In short: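 Radioligand binding to human CB1 stably expressed in CHO cells and to mouse brain membrane CB1 gave binding constants. For selected compounds, antagonism of CP55940-induced CB1 activation was measured in MPXNomad-CB1 HEK293 cells via cAMPNomad (cAMP) and ArresNomad (β-arrestin) fluorescent biosensors.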
# [3] = target: iNOS (Mus musculus, UniProt P29477); assay: Inducible NOS biochemical assay; conditions: for % Response (Inducible NOS): Mouse, 10 μM, criteria ≥ ±50%, preliminary data
# Excerpt: Biochemical assay results are presented as the percent inhibition of specific binding or activity (iNOS, CAMP, beta arrestin).
# T1 sequence (P47746 whole entry): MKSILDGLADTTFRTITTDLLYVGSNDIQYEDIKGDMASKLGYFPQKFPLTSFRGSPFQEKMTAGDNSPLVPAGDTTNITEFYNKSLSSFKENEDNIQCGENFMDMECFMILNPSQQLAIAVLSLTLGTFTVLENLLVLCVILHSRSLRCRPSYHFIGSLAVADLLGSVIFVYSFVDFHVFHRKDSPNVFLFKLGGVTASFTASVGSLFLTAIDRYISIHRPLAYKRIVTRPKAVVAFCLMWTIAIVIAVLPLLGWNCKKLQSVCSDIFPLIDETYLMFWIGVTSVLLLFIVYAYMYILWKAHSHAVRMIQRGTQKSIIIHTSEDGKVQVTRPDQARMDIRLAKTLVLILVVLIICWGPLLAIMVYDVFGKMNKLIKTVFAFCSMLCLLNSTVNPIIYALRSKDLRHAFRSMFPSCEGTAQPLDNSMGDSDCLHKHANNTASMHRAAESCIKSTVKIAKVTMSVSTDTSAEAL
pIC50 [1],pKi [2],iNOS inhibition % Response [3],% Response (Inducible NOS) [3],Compound
6.86,7.12,39%,–,"C/C(N)=N\C(=N\S(=O)(=O)c1ccc(Cl)cc1)N1CCC(c2ccccc2)C(c2ccc(Cl)cc2)=N1 (centres unmarked) [Compound 10a, (Z)—N—((E)-1-aminoethylidene)-3-(4-chlorophenyl)-N′-((4-chlorophenyl)sulfonyl)-4-phenyl-5,6-dihydropyridazine-1 (4H)-carboximidamide]"
6.98,7.25,55%,–,"C/C(N)=N\C(=N\S(=O)(=O)c1ccc(OC(F)(F)F)cc1)N1CCC(c2ccccc2)C(c2ccc(Cl)cc2)=N1 (centres unmarked) [Compound 10d, (Z)—N—((E)-1-aminoethylidene)-3-(4-chlorophenyl)-4-phenyl-N′-((4-(trifluoromethoxy)phenyl)sulfonyl)-5,6-dihydropyridazine-1 (4H)-carboximidamide]"
6.47,7.11,43%,–,"C/C(N)=N\C(=N\S(=O)(=O)c1ccc(C#N)cc1)N1CCC(c2ccccc2)C(c2ccc(Cl)cc2)=N1 (centres unmarked) [Compound 10e, (Z)—N—((E)-1-aminoethylidene)-3-(4-chlorophenyl)-N′-((4-cyanophenyl)sulfonyl)-4-phenyl-5,6-dihydropyridazine-1 (4H)-carboximidamide]"
6.82,7.64,55%,–,"CC(C)/C(N)=N\C(=N\S(=O)(=O)c1ccc(C(F)(F)F)cc1)N1CCC(c2ccccc2)C(c2ccc(Cl)cc2)=N1 (centres unmarked) [Compound 10m, (Z)—N—((E)-1-amino-2-methylpropylidene)-3-(4-chlorophenyl)-4-phenyl-N′-((4-(trifluoromethyl)phenyl)sulfonyl)-5,6-dihydropyridazine-1 (4H)-carboximidamide]"
6.68,7.36,55%,–,"N/C(=N\C(=N\S(=O)(=O)c1ccc(C(F)(F)F)cc1)N1CCC(c2ccccc2)C(c2ccc(Cl)cc2)=N1)C1CC1 (centres unmarked) [Compound 10n, (Z)—N—((Z)-amino (cyclopropyl)methylene)-3-(4-chlorophenyl)-4-phenyl-N′-((4-(trifluoromethyl)phenyl)sulfonyl)-5,6-dihydropyridazine-1 (4H)-carboximidamide]"
7.46,7.69,–,–,"CC(C)(C)/C(N)=N/C(=N/S(=O)(=O)c1ccc(C(F)(F)F)cc1)N1CCC(c2ccccc2)C(c2ccc(Br)cc2)=N1 (centres unmarked) [Compound 10x, (Z)—N—((Z)-1-amino-2,2-dimethylpropylidene)-3-(4-bromophenyl)-4-phenyl-N′-((4-(trifluoromethyl)phenyl)sulfonyl)-5,6-dihydropyridazine-1 (4H)-carboximidamide]"
7.04,7.24,–,–,"C/C(N)=N/C(=N/S(=O)(=O)c1ccc(C(F)(F)F)cc1)N1CCC(c2ccccc2)C(c2ccc(Br)cc2)=N1 (centres unmarked) [Compound 10y, (Z)—N—((Z)-1-aminoethylidene)-3-(4-bromophenyl)-4-phenyl-N′-((4-(trifluoromethyl)phenyl)sulfonyl)-5,6-dihydropyridazine-1 (4H)-carboximidamide]"
7.31,8.08,–,–,"N/C(=N\C(=N\S(=O)(=O)c1ccc(C(F)(F)F)cc1)N1CCC(c2ccccc2)C(c2ccc(Br)cc2)=N1)c1ccccc1F (centres unmarked) [Compound 10z, (Z)—N—((Z)-amino (2-fluorophenyl)methylene)-3-(4-bromophenyl)-4-phenyl-N′-((4-(trifluoromethyl)phenyl)sulfonyl)-5,6-dihydropyridazine-1 (4H)-carboximidamide]"
7.59,8.04,–,–,"N/C(=N\C(=N\S(=O)(=O)c1ccc(C(F)(F)F)cc1)N1CCC(c2ccccc2)C(c2ccc(Br)cc2)=N1)c1ccc(F)cc1F (centres unmarked) [Compound 10za, (Z)—N—((Z)-amino (2,4-difluorophenyl)methylene)-3-(4-bromophenyl)-4-phenyl-N′-((4-(trifluoromethyl)phenyl)sulfonyl)-5,6-dihydropyridazine-1 (4H)-carboximidamide]"
6.32,7.12,–,–,"CC(C)(C)/C(N)=N/C(=N/S(=O)(=O)c1ccc(C(F)(F)F)cc1)N1CCC(c2ccccc2)C(c2ccc(F)cc2)=N1 (centres unmarked) [Compound 10zb, (Z)—N—((Z)-1-amino-2,2-dimethylpropylidene)-3-(4-fluorophenyl)-4-phenyl-N′-((4-(trifluoromethyl)phenyl)sulfonyl)-5,6-dihydropyridazine-1 (4H)-carboximidamide]"
6.94,7.59,–,–,"N/C(=N\C(=N\S(=O)(=O)c1ccc(C(F)(F)F)cc1)N1CCC(c2ccccc2)C(c2ccc(F)cc2)=N1)c1ccccc1F (centres unmarked) [Compound 10zd, (Z)—N—((Z)-amino (2-fluorophenyl)methylene)-3-(4-fluorophenyl)-4-phenyl-N′-((4-(trifluoromethyl)phenyl)sulfonyl)-5,6-dihydropyridazine-1 (4H)-carboximidamide]"
6.35,7.23,–,–,"N/C(=N\C(=N\S(=O)(=O)c1ccc(C(F)(F)F)cc1)N1CCC(c2ccccc2)C(c2ccc(F)cc2)=N1)c1ccc(F)cc1F (centres unmarked) [Compound 10ze, (Z)—N—((Z)-amino (2,4-difluorophenyl)methylene)-3-(4-fluorophenyl)-4-phenyl-N′-((4-(trifluoromethyl)phenyl)sulfonyl)-5,6-dihydropyridazine-1 (4H)-carboximidamide]"
6.68,7.38,–,–,"N/C(=N\C(=N\S(=O)(=O)c1ccc(C(F)(F)F)cc1)N1CCC(c2ccccc2)C(c2ccc(F)cc2)=N1)c1ccccn1 (centres unmarked) [Compound 10zf, (Z)—N—((Z)-amino (pyridin-2-yl)methylene)-3-(4-fluorophenyl)-4-phenyl-N′-((4-(trifluoromethyl)phenyl)sulfonyl)-5,6-dihydropyridazine-1 (4H)-carboximidamide]"
< 6.00,7.03,–,–,"CS/C(N)=N/C(=N/S(=O)(=O)c1ccc(C(F)(F)F)cc1)N1CCC(c2ccccc2)C(c2ccc(F)cc2)=N1 (centres unmarked) [Compound 11j, methyl (E)-N′—((Z)-(3-(4-fluorophenyl)-4-phenyl-5,6-dihydropyridazin-1 (4H)-yl)(((4-(trifluoromethyl)phenyl)sulfonyl)imino)methyl)carbamimidothioate]"
6.49,7.70,–,–,"N#Cc1ccc(S(=O)(=O)/N=C(/N=C2\CCCCN2)N2CCC(c3ccccc3)C(c3ccc(Cl)cc3)=N2)cc1 (centres unmarked) [Compound 13b, (Z)-3-(4-chlorophenyl)-N′-((4-cyanophenyl)sulfonyl)-4-phenyl-N—((E)-piperidin-2-ylidene)-5,6-dihydropyridazine-1 (4H)-carboximidamide]"

# Second part, the molecule before the results:
Compound,pIC50 [1],pKi [2],iNOS inhibition % Response [3],% Response (Inducible NOS) [3]
"C[Se]/C(N)=N\C(=N\S(=O)(=O)c1ccc(C(F)(F)F)cc1)N1CCC(c2ccccc2)C(c2ccc(Cl)cc2)=N1 (centres unmarked) [Compound 12b, methyl (Z)—N′—((Z)-(3-(4-chlorophenyl)-4-phenyl-5,6-dihydropyridazin-1 (4H)-yl)(((4-(trifluoromethyl)phenyl)sulfonyl)imino)methyl)carbamimidoselenoate]",–,6.94,64%,–
"O=S(=O)(/N=C(/N=C1\CCCCN1)N1CCC(c2ccccc2)C(c2ccc(Cl)cc2)=N1)c1ccc2ccccc2c1 (centres unmarked) [Compound 15, (Z)-3-(4-chlorophenyl)-N′-(naphthalen-2-ylsulfonyl)-4-phenyl-N—((E)-piperidin-2-ylidene)-5,6-dihydropyridazine-1 (4H)-carboximidamide]",6.54,7.47,–,–
"COC(=O)CN/C(=N/S(=O)(=O)c1ccc(C(F)(F)F)cc1)N1CCC(c2ccccc2)C(c2ccc(Cl)cc2)=N1 (centres unmarked) [Compound 23, methyl (Z)-((3-(4-chlorophenyl)-4-phenyl-5,6-dihydropyridazin-1 (4H)-yl)(((4-(trifluoromethyl)phenyl)sulfonyl)imino)methyl)glycinate]",8.09,8.36,–,–
"NC(=O)CN/C(=N/S(=O)(=O)c1ccc(C(F)(F)F)cc1)N1CCC(c2ccccc2)C(c2ccc(Cl)cc2)=N1 (centres unmarked) [Compound 24, (Z)-2-(3-(4-chlorophenyl)-4-phenyl-N′-((4-(trifluoromethyl)phenyl)sulfonyl)-1,4,5,6-tetrahydropyridazine-1-carboximidamido)acetamide]",7.48,8.00,–,–
"NC(=O)CN/C(=N/S(=O)(=O)c1ccc(Cl)cc1)N1CCC(c2ccccc2)C(c2ccc(Cl)cc2)=N1 (centres unmarked) [Compound 25, (Z)-2-(3-(4-chlorophenyl)-N′-((4-chlorophenyl)sulfonyl)-4-phenyl-1,4,5,6-tetrahydropyridazine-1-carboximidamido)acetamide]",6.68,7.39,–,–
"C/C(N)=N\C(=N\S(=O)(=O)c1ccc(C)cc1)N1CCC(c2ccccc2)C(c2ccc(Cl)cc2)=N1 (centres unmarked) [Compound 101, (Z)—N—((E)-1-aminoethylidene)-3-(4-chlorophenyl)-4-phenyl-N′-tosyl-5,6-dihydropyridazine-1 (4H)-carboximidamide]",< 6.00,7.08,–,–
C/C(N)=N\C(=N\S(=O)(=O)c1ccc(C(F)(F)F)cc1)N1CCC(c2ccccc2)C(c2ccc(Cl)cc2)=N1 (centres unmarked) [drawing 16],–,–,–,64%
CS/C(N)=N\C(=N\S(=O)(=O)c1ccc(C(F)(F)F)cc1)N1CCC(c2ccccc2)C(c2ccc(Cl)cc2)=N1 (centres unmarked) [drawing 17],–,–,–,56%
C[Se]/C(N)=N\C(=N\S(=O)(=O)c1ccc(C(F)(F)F)cc1)N1CCC(c2ccccc2)C(c2ccc(Cl)cc2)=N1 (centres unmarked) [drawing 18],–,–,–,64%
